Test results published in the supplement of paper PMC10307832.

Tests used:
Assay in all cases: relative viability (nuclei count vs DMSO), 5 days (fraction); higher = more cells survive
FH535 + Tozasertib = compound: CC1=C(C=CC(=C1)[N+](=O)[O-])NS(=O)(=O)C2=C(C=CC(=C2)Cl)Cl [FH535] + Cc1cc(Nc2cc(N3CCN(C)CC3)nc(Sc3ccc(NC(=O)C4CC4)cc3)n2)n[nH]1 [Tozasertib] (partner 0.1 µM)
Summary of the method: (§1)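 Cells from lung cancer lines were seeded into 1536-well plates and, one day later, dosed by pin tool. Treatments were either a single drug or a fixed dose of an anchor drug with five library-drug doses (not always all listed) in √10 steps. After 5 days, nuclei were stained in a one-step fixation (final 0.05% Triton X-100, 1% formaldehyde, 1 ug/ml Hoechst) and counted on 4× images, and relative viability is the treated-to-vehicle nuclei ratio, as the median of duplicate plates.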

FH535 + Linsitinib = compound: CC1=C(C=CC(=C1)[N+](=O)[O-])NS(=O)(=O)C2=C(C=CC(=C2)Cl)Cl [FH535] + C[C@]1(O)C[C@@H](c2nc(-c3ccc4ccc(-c5ccccc5)nc4c3)c3c(N)nccn32)C1 [Linsitinib] (partner 1 µM)
Summary of the method: as §1

FH535 + Phenformin = compound: CC1=C(C=CC(=C1)[N+](=O)[O-])NS(=O)(=O)C2=C(C=CC(=C2)Cl)Cl [FH535] + N=C(N)NC(=N)NCCc1ccccc1 [Phenformin] (partner 250 µM)
Summary of the method: as §1

FH535 + Pemetrexed = compound: CC1=C(C=CC(=C1)[N+](=O)[O-])NS(=O)(=O)C2=C(C=CC(=C2)Cl)Cl [FH535] + Nc1nc2[nH]cc(CCc3ccc(C(=O)N[C@@H](CCC(=O)O)C(=O)O)cc3)c2c(=O)[nH]1 [Pemetrexed] (partner 0.2 µM)
Summary of the method: as §1

FH535 + Bortezomib = compound: CC1=C(C=CC(=C1)[N+](=O)[O-])NS(=O)(=O)C2=C(C=CC(=C2)Cl)Cl [FH535] + CC(C)C[C@H](NC(=O)[C@H](Cc1ccccc1)NC(=O)c1cnccn1)B(O)O [Bortezomib] (partner 0.002 µM)
Summary of the method: as §1

Cell Line | relative viability (FH535 + Tozasertib; first compound 0.04 µM) | relative viability (FH535 + Tozasertib; first compound 0.1265 µM) | relative viability (FH535 + Tozasertib; first compound 0.4 µM) | relative viability (FH535 + Tozasertib; first compound 1.265 µM) | relative viability (FH535 + Linsitinib; first compound 0.04 µM) | relative viability (FH535 + Linsitinib; first compound 0.1265 µM) | relative viability (FH535 + Linsitinib; first compound 0.4 µM) | relative viability (FH535 + Linsitinib; first compound 1.265 µM) | relative viability (FH535 + Phenformin; first compound 0.04 µM) | relative viability (FH535 + Phenformin; first compound 0.1265 µM) | relative viability (FH535 + Phenformin; first compound 0.4 µM) | relative viability (FH535 + Phenformin; first compound 1.265 µM) | relative viability (FH535 + Pemetrexed; first compound 0.04 µM) | relative viability (FH535 + Pemetrexed; first compound 0.1265 µM) | relative viability (FH535 + Pemetrexed; first compound 0.4 µM) | relative viability (FH535 + Pemetrexed; first compound 1.265 µM) | relative viability (FH535 + Bortezomib; first compound 0.04 µM) | relative viability (FH535 + Bortezomib; first compound 0.1265 µM) | relative viability (FH535 + Bortezomib; first compound 0.4 µM) | relative viability (FH535 + Bortezomib; first compound 1.265 µM)
EMC-BAC-2 | 0.289 | 0.312 | 0.306 | 0.254 | 0.822 | 0.873 | 0.771 | 0.753 | 0.416 | 0.554 | 0.46 | 0.359 | 0.408 | 0.422 | 0.419 | 0.423 | 0.961 | 1.13 | 1.06 | 1.03
NCI-H727 | 0.465 | 0.545 | 0.582 | 0.504 | 0.367 | 0.192 | 0.293 | 0.216 | 0.56 | 0.509 | 0.363 | 0.305 | – | – | – | – | 0.687 | 0.59 | 0.75 | 0.721
LU99A | 0.297 | 0.281 | 0.329 | 0.273 | 0.385 | 0.546 | 0.532 | 0.571 | 0.55 | 0.856 | 0.764 | 0.729 | 0.148 | 0.171 | 0.199 | 0.239 | 0.726 | 1.01 | 1.05 | 0.948
LK-2 | 0.166 | 0.172 | 0.169 | 0.201 | 0.477 | 0.487 | 0.673 | 0.561 | 0.35 | 0.521 | 0.495 | 0.211 | 0.271 | 0.288 | 0.278 | 0.307 | – | – | – | –
SW 900 | 0.535 | 0.525 | 0.536 | 0.484 | – | – | – | – | 0.569 | 0.667 | 0.48 | 0.236 | 0.441 | 0.479 | 0.501 | 0.472 | – | – | – | –
NCI-H322M | 0.493 | 0.514 | 0.475 | 0.468 | 0.982 | 1.07 | 1 | 0.847 | 0.813 | 0.844 | 0.707 | 0.601 | 0.559 | 0.67 | 0.633 | 0.587 | 1.21 | 1.14 | 1.07 | 1.08
NCI-H2405 | 0.746 | 0.755 | 0.782 | 0.579 | 0.848 | 1.01 | 0.953 | 0.76 | 0.395 | 0.378 | 0.344 | 0.331 | 0.977 | 1.01 | 0.769 | 0.565 | 0.987 | 0.916 | 0.906 | 0.509
NCI-H1563 | – | – | – | – | 1.2 | 1.07 | 1.25 | 1.04 | 0.665 | 0.669 | 0.644 | 0.563 | 0.786 | 0.679 | 0.752 | 0.625 | 0.835 | 1.04 | 0.816 | 0.719
HCC-827 | 0.425 | 0.452 | 0.433 | 0.347 | 0.89 | 0.937 | 0.863 | 0.714 | 0.407 | 0.387 | 0.383 | 0.313 | 0.237 | 0.246 | 0.216 | 0.263 | 1.01 | 0.953 | 1.04 | 0.849
NCI-H1666 | 0.6 | 0.544 | 0.631 | 0.545 | 0.88 | 0.78 | 0.753 | 0.55 | 0.582 | 0.513 | 0.476 | 0.373 | 0.838 | 0.834 | 0.948 | 0.794 | 0.725 | 0.882 | 0.705 | 0.625
SK-MES-1 | 0.952 | 0.954 | 0.751 | 0.658 | 1.04 | 1.15 | 1.09 | 0.948 | 0.71 | 0.614 | 0.553 | 0.385 | 0.934 | 0.906 | 0.913 | 0.849 | – | – | – | –
201T | 0.919 | 0.953 | 0.976 | 0.743 | 1.05 | 1.03 | 0.95 | 0.964 | 0.402 | 0.45 | 0.397 | 0.321 | 0.344 | 0.336 | 0.356 | 0.275 | 1.02 | 1.05 | 1.1 | 1.03
RERF-LC-KJ | 0.515 | 0.52 | 0.473 | 0.386 | 0.872 | 0.896 | 0.854 | 0.752 | 0.38 | 0.429 | 0.406 | 0.308 | 0.466 | 0.491 | 0.469 | 0.435 | 1.11 | 1.11 | 1.11 | 0.788
NCI-H3122 | 0.329 | 0.367 | 0.475 | 0.369 | 0.989 | 1.07 | 0.977 | 0.895 | 0.374 | 0.344 | 0.286 | 0.164 | 0.199 | 0.191 | 0.188 | 0.189 | 0.979 | 0.976 | 0.989 | 0.919
LXF-289 | 0.191 | 0.172 | 0.166 | 0.136 | 0.949 | 0.938 | 0.897 | 0.697 | 0.474 | 0.486 | 0.472 | 0.384 | 0.775 | 0.948 | 0.95 | 0.751 | 0.96 | 0.996 | 0.928 | 0.723
EKVX | 0.405 | 0.402 | 0.452 | 0.333 | 1.03 | 1.05 | 0.967 | 0.854 | 0.238 | 0.223 | 0.173 | 0.153 | 0.366 | 0.47 | 0.413 | 0.379 | 1.04 | 0.762 | 1 | 0.704
A-427 | 0.175 | 0.205 | 0.243 | 0.159 | 1.13 | 1.18 | 1.07 | 0.981 | 0.272 | 0.331 | 0.215 | 0.135 | 0.979 | 0.973 | 0.953 | 0.785 | 0.967 | 0.982 | 0.829 | 0.908
